From patent US20090099167A1, “Organic compounds” (Novartis Institutes for Biomedical Research, priority 2004, published 2009)

Tests used:
c-Src kinase = c-Src kinase (Homo sapiens, UniProt P12931); assay: c-Src kinase inhibition; type: biochemical; conditions: Table 5; read-out: c-scr, IC50 class
Description: An appropriate assay is described in Andrejauskas-Buchdunger et al., Cancer Res. 52, 5353-8 (1992).

[1] = molecular target: T1, human insulin receptor (Ins-R) (Homo sapiens, UniProt P06213); assay: Ins-R tyrosine kinase assay, GST-Ins-R; type: biochemical; conditions: Table 5; read-out: Ins-R, IC50 class
T1 construct: encoding the amino acid region 919-1343 of the intra-cytoplasmic kinase domain of the human insulin receptor; made in house; host or cells: baculovirus (Bac-to-Bac)
Description: (§1) The inhibition of IGF-1R and Ins-R can be determined as follows: The baculovirus donor vector pfbgx3IGFIRcd is used to generate a recombinant baculovirus that expresses the amino acid region 950-1337 of the mature peptide cytoplasmic domain of the human IGF-IR. To generate the cDNA fragment encoding the amino acid region 919-1343 of the intra-cytoplasmic kinase domain of the human insulin receptor, pC5hInsR is used. The fragments of the human IGF-IR and Ins-R are cloned, expressed and small-scale purified as a factor Xa-cleavable glutathione-S-transferase (GST)-fusion protein using the Bac-to-Bac™ system (GIBCO BRL) of recombinant baculovirus generation. Virus containing media is collected from the transfected cell culture and used for infection to increase its titer. Virus containing media obtained after two rounds of infection is used for large-scale protein expression. Cell extracts are prepared and loaded onto a glutathione-Sepharose (Pharmacia) column. After washing, the GST-tagged proteins are then eluted with a glutathione-containing buffer. Purified protein is stored at −70° C. in elution buffer. Tyrosine protein kinase assays with purified GST-IGF-1R and GST-ins-R are carried in a final volume of 30 μl containing 20 mM Tris-HCl, pH 7.6, 10 mM MgCl2, 0.01 mM Na3VO4, 1% DMSO, 1 mM DTT, 3 μg/ml poly(Glu,Tyr) 4:1 and 10 μM ATP (γ-[^33P]-ATP 0.1 μCi). The assay is performed in 96-well plates at ambient temperature for 20 min and terminated by addition of 25 μl 0.05 M EDTA pH 7.0. An aliquot of 40 μl is spotted with a multichannel dispenser on Whatman P81 membranes mounted in a Millipore Microtiter filter manifold connected to a low vacuum source. After elimination of liquid, the membrane is transferred to a sequence of 4 washing baths containing 0.5% H3PO4 and one with EtOH (shaking incubation for 10 min each), dried, mounted onto a Hewlett Packard TopCount manifold added 10 μl Microscint® and counted. Compounds of formula (I) show up to 90% inhibition of Ins-R at 10,000 nM, preferably between 60-90% inhibition. The inhibition of Tek can be determined as follows: The procedure of the expression, purification and assay these kinases has been described. Fabbro et al., Pharmacol. Ther. 82(2-3) 293-301 (1999). In brief, the glutathione S-transferase (GST) gene from the pAcG1 vector (Pharmingen) is excised with EcoRV and EcoRI and inserted into the cloning site of the Fast-Bac baculoviral vector (GIBCO) creating a 5530 bp vector with N-terminal cloning sites derived from the pAcG1 fusion vector (FBG0). The C-terminal cloning site may be any cloning site (from the Fast-Bac vector) downstream of the N-terminal cloning site used. N-terminally GST-fused (pAcG1, Pharmingen) KDR, Flt-1, Flk-1, Tek and PDGFR-β kinase domains are obtained from ProQinase, Freiburg, Germany. Tek is recloned into the FBG1 vector by EcoRI excision and ligation into EcoRI digested FBG1 (FBG1-Tek). The coding sequences for the whole cytoplasmic domain of c-Kit (aa 544-976) and c-Fms (aa 538-972) are amplified by PCR from human uterus and from human bone marrow cDNA libraries (Clontech), respectively. The amplified DNA fragments are fused to GST by cloning them into FBG1 as BamHI-EcoRI insertions, to yield FBG1-c-Kit and FBG1-c-Fms. Tek is recloned into the FBG0 transfer vector by EcoRI excision and ligation into EcoRI digested FBG0 (FBG-Tie2/Tek). FGFR-1 and c-met kinase domains are obtained by PCR from human A431 cells. N-terminal primers contain an overhanging EcoRI site, while C-terminal primers contain a XhoI site to aid cloning into the transfer vectors. After digestion of both the PCR fragments and FBG0 the cleavage products are gel-purified and ligated together to form the kinase constructs (FBG-Met, FBG-FGFR-1).

Tek = molecular target: T2, Tek (Homo sapiens, UniProt Q02763); assay: Tek kinase inhibition, GST-fused kinase domain; type: biochemical; conditions: Table 5; read-out: Tek, IC50 class
T2 construct: N-terminally GST-fused (pAcG1, Pharmingen) KDR, Flt-1, Flk-1, Tek and PDGFR-β kinase domains are obtained from ProQinase, Freiburg, Germany; host or cells: Sf9 or High Five (baculovirus)
Description: as §1
Viruses for each of the kinases are made according to the protocol supplied by GIBCO. […]

T1 sequence (P06213 958-1382 limits assumed): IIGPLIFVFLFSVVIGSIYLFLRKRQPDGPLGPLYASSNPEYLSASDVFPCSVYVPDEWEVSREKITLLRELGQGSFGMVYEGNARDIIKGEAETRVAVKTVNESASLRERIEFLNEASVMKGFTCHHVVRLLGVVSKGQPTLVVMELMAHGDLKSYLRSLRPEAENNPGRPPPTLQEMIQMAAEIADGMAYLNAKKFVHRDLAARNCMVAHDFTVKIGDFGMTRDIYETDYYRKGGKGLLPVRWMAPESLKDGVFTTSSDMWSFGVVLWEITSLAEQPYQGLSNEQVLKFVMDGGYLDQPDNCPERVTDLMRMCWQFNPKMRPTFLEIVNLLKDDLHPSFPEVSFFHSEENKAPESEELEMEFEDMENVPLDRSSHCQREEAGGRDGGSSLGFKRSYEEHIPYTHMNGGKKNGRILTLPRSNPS
T2 sequence (Q02763 824-1096 limits assumed, species assumed): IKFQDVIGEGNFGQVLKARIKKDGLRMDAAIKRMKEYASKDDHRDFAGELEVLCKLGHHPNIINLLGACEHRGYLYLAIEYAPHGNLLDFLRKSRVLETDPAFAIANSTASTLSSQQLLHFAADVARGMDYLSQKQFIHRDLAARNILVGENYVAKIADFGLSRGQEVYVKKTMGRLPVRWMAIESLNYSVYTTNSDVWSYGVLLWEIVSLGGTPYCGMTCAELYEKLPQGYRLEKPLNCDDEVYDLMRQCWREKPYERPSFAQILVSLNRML
c-Src kinase, sequence (P12931 whole entry): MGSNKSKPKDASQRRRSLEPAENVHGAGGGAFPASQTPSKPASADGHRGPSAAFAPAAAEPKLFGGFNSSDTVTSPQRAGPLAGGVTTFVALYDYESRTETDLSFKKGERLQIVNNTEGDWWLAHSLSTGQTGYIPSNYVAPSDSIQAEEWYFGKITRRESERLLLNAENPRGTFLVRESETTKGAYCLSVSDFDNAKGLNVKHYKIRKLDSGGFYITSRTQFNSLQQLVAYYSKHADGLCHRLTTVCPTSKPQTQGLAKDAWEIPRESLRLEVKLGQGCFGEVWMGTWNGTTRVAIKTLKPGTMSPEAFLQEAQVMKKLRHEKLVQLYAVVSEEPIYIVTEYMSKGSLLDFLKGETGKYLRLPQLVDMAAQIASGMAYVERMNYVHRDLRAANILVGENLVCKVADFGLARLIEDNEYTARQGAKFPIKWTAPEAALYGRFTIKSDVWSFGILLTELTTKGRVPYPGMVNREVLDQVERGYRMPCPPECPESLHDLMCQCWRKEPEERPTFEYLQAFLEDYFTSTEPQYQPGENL

Row | IC50 (c-Src kinase) | IC50 [1] | IC50 (Tek) | melting point | Compound
1 | < 1000 nM | 1000 to 10000 nM | 1000 to 10000 nM | 110 to 115 °C | Cc1nc2c(-c3cccc(N4CCN(C)CC4)c3)cnn2c(N)c1-c1cccc(Cl)c1 [Example 72, 6-(3-Chloro-phenyl)-5-methyl-3-[3-(4-methyl-piperazin-1-yl)-phenyl]-pyrazolo[1,5-a]pyrimidin-7-ylamine]
2 | < 1000 nM | > 10000 nM | 1000 to 10000 nM | 113 to 115 °C | Cc1nc2c(-c3ccc(N4CCN(C)CC4)cc3)cnn2c(N)c1-c1cccc(Cl)c1 [Example 73, 6-(3-Chloro-phenyl)-5-methyl-3-[4-(4-methyl-piperazin-1-yl)-phenyl]-pyrazolo[1,5-a]pyrimidin-7-ylamine]
3 | – | 1000 to 10000 nM | < 1000 nM | 217 to 220 °C | COc1cc(N2CCN(C)CC2)ccc1-c1cnn2c(N)c(-c3cccc(O)c3)cnc12 [Example 76, 3-{7-Amino-3-[2-methoxy-4-(4-methyl-piperazin-1-yl)-phenyl]-pyrazolo[1,5-a]pyrimidin-6-yl}-phenol]
4 | < 1000 nM | > 10000 nM | 1000 to 10000 nM | 204 to 206 °C | Cc1nc2c(-c3cccc(N4CCN(C)CC4)c3)cnn2c(N)c1-c1ccc(F)cc1 [Example 80, 6-(4-Fluoro-phenyl)-5-methyl-3-[3-(4-methyl-piperazin-1-yl)-phenyl]-pyrazolo[1,5-a]pyrimidin-7-ylamine]
5 | < 1000 nM | – | 1000 to 10000 nM | 195.3 to 197.2 °C | CN1CCN(c2cccc(-c3cnn4c(N)c(-c5cccc(Br)c5)cnc34)c2)CC1 [Example 86, 6-(3-Bromo-phenyl)-3-[3-(4-methyl-piperazin-1-yl)-phenyl]-pyrazolo[1,5-a]pyrimidin-7-ylamine]
6 | < 1000 nM | – | > 10000 nM | 165 to 167 °C | Cc1nc2c(-c3cccc(N4CCOCC4)c3)cnn2c(N)c1-c1cccc(Cl)c1 [Example 87, 6-(3-Chloro-phenyl)-5-methyl-3-(3-morpholin-4-yl-phenyl)-pyrazolo[1,5-a]pyrimidin-7-ylamine]
7 | < 1000 nM | – | 1000 to 10000 nM | 165 to 167 °C | Cc1nc2c(-c3cccc(N4C[C@@H](C)O[C@@H](C)C4)c3)cnn2c(N)c1-c1cccc(Cl)c1 [Example 89, 6-(3-Chloro-phenyl)-3-[3-((2R,6S)-2,6-dimethyl-morpholin-4-yl)-phenyl]-5-methyl-pyrazolo[1,5-a]pyrimidin-7-ylamine]
8 | > 10000 nM | – | > 10000 nM | 72 to 75 °C | CN1CCN(c2cccc(-c3cnn4c(N)c(Cc5ccccc5)cnc34)c2)CC1 [Example 91, 6-Benzyl-3-[3-(4-methyl-piperazin-1-yl)-phenyl]-pyrazolo[1,5-a]pyrimidin-7-ylamine]
9 | < 1000 nM | – | > 10000 nM | 223 to 226 °C | COc1ccc(-c2cnn3c(N)c(-c4cccc(Cl)c4)c(C)nc23)cc1OC [Example 93, 6-(3-Chloro-phenyl)-3-(3,4-dimethoxy-phenyl)-5-methyl-pyrazolo[1,5-a]pyrimidin-7-ylamine]
10 | < 1000 nM | – | > 10000 nM | 235 to 238 °C | COc1ccc(-c2cnn3c(N)c(-c4ccc(F)c(Cl)c4)c(C)nc23)cc1OC [Example 94, 6-(3-Chloro-4-fluoro-phenyl)-3-(3,4-dimethoxy-phenyl)-5-methyl-pyrazolo[1,5-a]pyrimidin-7-ylamine]
11 | 1000 to 10000 nM | – | > 10000 nM | 224 to 227 °C | COc1ccc(-c2cnn3c(N)c(-c4ccc(F)c(Cl)c4)c(C)nc23)cc1 [Example 95, 6-(3-Chloro-4-fluoro-phenyl)-3-(4-methoxy-phenyl)-5-methyl-pyrazolo[1,5-a]pyrimidin-7-ylamine]
12 | < 1000 nM | – | > 10000 nM | 243 to 244 °C | COc1ccc(-c2cnn3c(N)c(-c4ccc(F)cc4)c(C)nc23)cc1 [Example 96, 6-(4-Fluoro-phenyl)-3-(4-methoxy-phenyl)-5-methyl-pyrazolo[1,5-a]pyrimidin-7-ylamine]
13 | < 1000 nM | – | > 10000 nM | 209 to 212 °C | Cc1nc2c(-c3cccc(N4CCN(CCO)CC4)c3)cnn2c(N)c1-c1ccc(F)cc1 [Example 97, 2-(4-{3-[7-Amino-6-(4-fluoro-phenyl)-5-methyl-pyrazolo[1,5-a]pyrimidin-3-yl]-phenyl}-piperazin-1-yl)-ethanol]
14 | < 1000 nM | – | 1000 to 10000 nM | 216 to 219 °C | Cc1nc2c(-c3cccc(N4CCN(C)CC4)c3)cnn2c(N)c1-c1ccc(F)c(F)c1 [Example 98, 6-(3,4-Difluoro-phenyl)-5-methyl-3-[3-(4-methyl-piperazin-1-yl)-phenyl]-pyrazolo[1,5-a]pyrimidin-7-ylamine]
15 | < 1000 nM | – | > 10000 nM | 230 to 235 °C | COc1ccc(-c2cnn3c(N)c(-c4ccc(F)c(F)c4)c(C)nc23)cc1OC [Example 99, 6-(3,4-Difluoro-phenyl)-3-(3,4-dimethoxy-phenyl)-5-methyl-pyrazolo[1,5-a]pyrimidin-7-ylamine]
16 | < 1000 nM | – | > 10000 nM | 104 to 107 °C | Cc1nc2c(-c3cccc(N4CCN(CCO)CC4)c3)cnn2c(N)c1-c1ccc(F)c(Cl)c1 [Example 100, 2-(4-{3-[7-Amino-6-(3-chloro-4-fluoro-phenyl)-5-methyl-pyrazolo[1,5-a]pyrimidin-3-yl]-phenyl}-piperazin-1-yl)-ethanol]
17 | < 1000 nM | – | > 10000 nM | 172 to 174 °C | Cc1nc2c(-c3cccc(N4CCN(CCO)CC4)c3)cnn2c(N)c1-c1ccc(F)c(F)c1 [Example 101, 2-(4-{3-[7-Amino-6-(3,4-difluoro-phenyl)-5-methyl-pyrazolo[1,5-a]pyrimidin-3-yl]-phenyl}-piperazin-1-yl)-ethanol]
18 | < 1000 nM | – | 1000 to 10000 nM | 188 to 193 °C | Cc1nc2c(-c3cccc(N4CCC(N5CCCC5)CC4)c3)cnn2c(N)c1-c1cccc(Cl)c1 [Example 102, 6-(3-Chloro-phenyl)-5-methyl-3-[3-(4-pyrrolidin-1-yl-piperidin-1-yl)-phenyl]-pyrazolo[1,5-a]pyrimidin-7-ylamine]
19 | < 1000 nM | – | > 10000 nM | 244 to 249 °C | Cc1nc2c(-c3cccc(N4CCC(N5CCCC5)CC4)c3)cnn2c(N)c1-c1ccc(F)cc1 [Example 103, 6-(4-Fluoro-phenyl)-5-methyl-3-[3-(4-pyrrolidin-1-yl-piperidin-1-yl)-phenyl]-pyrazolo[1,5-a]pyrimidin-7-ylamine]
